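48-hour exposure; five concentrations; linearly interpolated endpoints. GI50 marks 50% less growth.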 The source made the active and inactive calls. Rule as the data show it: active = GI50 up to about 1.1 µM and inactive = higher.
Columns and labels:
Assay in all cases: NCI anticancer screen, dose series, 48 h
SF-539 = tested on: SF-539
NCI-H23 = tested on: NCI-H23
MDA-MB-231 = tested on: MDA-MB-231
UACC-62 = tested on: UACC-62
BT-549 = tested on: BT-549
MDA-MB-435 = tested on: MDA-MB-435
U-251 = tested on: U-251
COLO 205 = tested on: COLO 205
HCT-116 = tested on: HCT-116
MDA-N = tested on: MDA-N
HT-29 = tested on: HT-29
MCF7 = tested on: MCF7
OVCAR-5 = tested on: OVCAR-5
EKVX = tested on: EKVX
OVCAR-3 = tested on: OVCAR-3
PC-3 = tested on: PC-3
786-0 = tested on: 786-0
SR = tested on: SR
CCRF-CEM = tested on: CCRF-CEM
HCC 2998 = tested on: HCC 2998

Compound | GI50 (SF-539) | GI50 (NCI-H23) | GI50 (MDA-MB-231) | GI50 (UACC-62) | GI50 (BT-549) | GI50 (MDA-MB-435) | GI50 (U-251) | GI50 (COLO 205) | GI50 (HCT-116) | GI50 (MDA-N) | GI50 (HT-29) | GI50 (MCF7) | GI50 (OVCAR-5) | GI50 (EKVX) | GI50 (OVCAR-3) | GI50 (PC-3) | GI50 (786-0) | GI50 (SR) | GI50 (CCRF-CEM) | GI50 (HCC 2998)
CN1CCN(c2ccncc2S(=O)(=O)N2CCN(C)CC2)CC1 | > 100 µM (inactive) | > 100 µM (inactive) | > 100 µM (inactive) | > 100 µM (inactive) | > 100 µM (inactive) | > 100 µM (inactive) | > 100 µM (inactive) | > 100 µM (inactive) | > 100 µM (inactive) | > 100 µM (inactive) | > 100 µM (inactive) | > 100 µM (inactive) | > 100 µM (inactive) | > 100 µM (inactive) | > 100 µM (inactive) | > 100 µM (inactive) | > 100 µM (inactive) |  |  | 
Cc1cnc(Cl)nc1C(C#N)c1nc2ccccc2s1 (stereo unspecified) | 25.8 µM (inactive) | 7 µM (inactive) | 40.9 µM (inactive) |  | 12.4 µM (inactive) | 22.5 µM (inactive) | 20.1 µM (inactive) | 14.2 µM (inactive) | 10.5 µM (inactive) | 15 µM (inactive) | 29.6 µM (inactive) |  | 25.8 µM (inactive) | 32.8 µM (inactive) | 25.5 µM (inactive) |  | 15.7 µM (inactive) |  |  | 
O=[N+]([O-])c1ccc(/C=N/Nc2nc3ccccc3[nH]2)o1 | 4.09 µM (inactive) | 16.2 µM (inactive) | 32.4 µM (inactive) |  | 15 µM (inactive) | 4.45 µM (inactive) | 34 µM (inactive) | 10.6 µM (inactive) | 14.8 µM (inactive) | 7.57 µM (inactive) | 19.5 µM (inactive) |  | 23.1 µM (inactive) | 22.8 µM (inactive) | 11.1 µM (inactive) | 15.3 µM (inactive) | 24.9 µM (inactive) | 7.71 µM (inactive) | 8.39 µM (inactive) | 
COc1ccc(OC)c([N+](=O)[O-])c1-c1nc2sc(Cl)cn2c1/C=N/N=C(N)N | 22.9 µM (inactive) | 26.4 µM (inactive) | 15.1 µM (inactive) | 13.3 µM (inactive) | 16.8 µM (inactive) | 17.5 µM (inactive) | 24.8 µM (inactive) | 15.3 µM (inactive) | 58.3 µM (inactive) |  | 15.5 µM (inactive) | 9.89 µM (inactive) | 25.9 µM (inactive) | 25.6 µM (inactive) | 16 µM (inactive) | 13.8 µM (inactive) | 42.9 µM (inactive) | 14.2 µM (inactive) | 30.9 µM (inactive) | 12.7 µM (inactive)
NS(=O)(=O)c1nnc(NS(=O)(=O)c2ccc([N+](=O)[O-])cc2)s1 | > 100 µM (inactive) | > 100 µM (inactive) | > 100 µM (inactive) | > 100 µM (inactive) | > 100 µM (inactive) | > 100 µM (inactive) | > 100 µM (inactive) | > 100 µM (inactive) | > 100 µM (inactive) |  | > 100 µM (inactive) | > 100 µM (inactive) | > 100 µM (inactive) | > 100 µM (inactive) | > 100 µM (inactive) | > 100 µM (inactive) | 37.1 µM (inactive) | 32.7 µM (inactive) |  | > 100 µM (inactive)
c1cc(-c2ccc(-c3ccc(-c4ccc(-c5cccc6nsnc56)[nH]4)c4nsnc34)[nH]2)c2nsnc2c1 |  | > 100 µM (inactive) | > 100 µM (inactive) | > 100 µM (inactive) | > 100 µM (inactive) | > 100 µM (inactive) | > 100 µM (inactive) | > 100 µM (inactive) | > 100 µM (inactive) | > 100 µM (inactive) | > 100 µM (inactive) | > 100 µM (inactive) | > 100 µM (inactive) | > 100 µM (inactive) | > 100 µM (inactive) | > 100 µM (inactive) | > 100 µM (inactive) |  | > 100 µM (inactive) | > 100 µM (inactive)
O=[N+]([O-])/C(C(Cl)=C(Cl)Cl)=C(\Nc1cccc2ccccc12)Sc1ccccc1 | 19.3 µM (inactive) | 16 µM (inactive) | 11.3 µM (inactive) | 10.8 µM (inactive) | 18.4 µM (inactive) | 13.8 µM (inactive) | 11.4 µM (inactive) | 15.1 µM (inactive) | 15 µM (inactive) | 16.5 µM (inactive) | 19.5 µM (inactive) | 12.6 µM (inactive) | 20.3 µM (inactive) | 11.4 µM (inactive) | 7.31 µM (inactive) | 13.5 µM (inactive) | 18.4 µM (inactive) |  | 8.55 µM (inactive) | 17.8 µM (inactive)
CN1CCN(C(=S)N(C)C(=O)c2ccc(Cl)cc2)CC1 |  | > 100 µM (inactive) | > 100 µM (inactive) | > 100 µM (inactive) | > 100 µM (inactive) | > 100 µM (inactive) | > 100 µM (inactive) | > 100 µM (inactive) |  | > 100 µM (inactive) | > 100 µM (inactive) | > 100 µM (inactive) | > 100 µM (inactive) |  | > 100 µM (inactive) |  | > 100 µM (inactive) | > 10 µM (inactive) | > 100 µM (inactive) | > 100 µM (inactive)
O=C1NC(=S)NC(=O)C1C(c1ccc([N+](=O)[O-])cc1)C1C(=O)NC(=S)NC1=O.c1ccncc1 |  | > 100 µM (inactive) | > 100 µM (inactive) | > 100 µM (inactive) | > 100 µM (inactive) | > 100 µM (inactive) | > 100 µM (inactive) | > 100 µM (inactive) | > 100 µM (inactive) | > 100 µM (inactive) | > 100 µM (inactive) | > 100 µM (inactive) | > 100 µM (inactive) | > 100 µM (inactive) | > 100 µM (inactive) | > 100 µM (inactive) | > 100 µM (inactive) |  | > 100 µM (inactive) | 
COc1cc(S(=O)(=O)Nc2ccc(-c3csc(N4C(=O)C(C)SC4c4cccs4)n3)cc2)ccc1Cl (stereo unspecified) | 48.9 µM (inactive) | 39.8 µM (inactive) |  | 89.3 µM (inactive) | 34 µM (inactive) | 30 µM (inactive) |  | 24.9 µM (inactive) | 35.1 µM (inactive) |  | 30.5 µM (inactive) | > 100 µM (inactive) | > 100 µM (inactive) | 57.5 µM (inactive) | 58.5 µM (inactive) | 15.7 µM (inactive) | 34.6 µM (inactive) | 33.8 µM (inactive) | 8.28 µM (inactive) | 
NC(CCCCNC(=O)OCc1ccccc1)C(=O)NC(CCCCNC(=O)OCc1ccccc1)C(=O)ON1C(=O)CCC1=O (stereo unspecified) |  | > 100 µM (inactive) | > 100 µM (inactive) | > 100 µM (inactive) | > 100 µM (inactive) |  | > 100 µM (inactive) | > 100 µM (inactive) | > 100 µM (inactive) | > 100 µM (inactive) | > 100 µM (inactive) | > 100 µM (inactive) | > 100 µM (inactive) | > 100 µM (inactive) |  | > 100 µM (inactive) | > 100 µM (inactive) | > 100 µM (inactive) | > 100 µM (inactive) | > 100 µM (inactive)
C=C1c2nc3ccccc3n2C=C(c2ccccc2)N1c1ccc(C)cc1 | 63.8 µM (inactive) | 58.6 µM (inactive) | > 100 µM (inactive) | 64.4 µM (inactive) | 49.9 µM (inactive) | 33.2 µM (inactive) | 88.1 µM (inactive) | 73.5 µM (inactive) | 36.9 µM (inactive) |  |  | 29.5 µM (inactive) | > 100 µM (inactive) | > 100 µM (inactive) | 75 µM (inactive) | 50.4 µM (inactive) | 45.3 µM (inactive) | 10.3 µM (inactive) | 55.6 µM (inactive) | 9.31 µM (inactive)
CC(C)(C)C1=CC(=C2C=Cc3cc(O)ccc3O2)C=C(C(C)(C)C)C1=O | 1.87 µM (inactive) | 1.79 µM (inactive) | 1.7 µM (inactive) | 1.38 µM (inactive) | 1.79 µM (inactive) | 1.5 µM (inactive) | 1.39 µM (inactive) | 1.72 µM (inactive) | 1.17 µM (inactive) |  | 1.65 µM (inactive) | 1.07 µM (active) | 2.13 µM (inactive) | 1.85 µM (inactive) | 1.21 µM (inactive) | 1.57 µM (inactive) | 1.36 µM (inactive) | 0.731 µM (active) | 0.745 µM (active) | 1.26 µM (inactive)
CC(C)(C)[Si](C)(C)OCC1CCC(n2cnc3c(=O)[nH]cnc32)O1 (stereo unspecified) | > 100 µM (inactive) | > 100 µM (inactive) | > 100 µM (inactive) | 35.7 µM (inactive) |  | > 100 µM (inactive) | > 100 µM (inactive) | > 100 µM (inactive) | > 100 µM (inactive) | > 100 µM (inactive) | > 100 µM (inactive) | > 100 µM (inactive) | > 100 µM (inactive) | > 100 µM (inactive) | > 100 µM (inactive) | > 100 µM (inactive) | > 100 µM (inactive) | 35.3 µM (inactive) | 68.5 µM (inactive) | > 100 µM (inactive)
O=C1Cc2c([nH]c3ccc(Br)cc23)-c2cc(O)c(O)cc2N1 |  | > 100 µM (inactive) | > 100 µM (inactive) | > 100 µM (inactive) | > 100 µM (inactive) | > 100 µM (inactive) | > 100 µM (inactive) | > 100 µM (inactive) |  | > 100 µM (inactive) |  | > 100 µM (inactive) | > 100 µM (inactive) | > 100 µM (inactive) | > 100 µM (inactive) | > 100 µM (inactive) | > 100 µM (inactive) |  |  | > 100 µM (inactive)
O=C(NC1CCN(Cc2ccccc2)CC1)c1cccc(I)c1 | 22.8 µM (inactive) | 24 µM (inactive) | 17 µM (inactive) | 20.5 µM (inactive) | 42.5 µM (inactive) | 17.3 µM (inactive) | 23 µM (inactive) | 17.6 µM (inactive) | 15.3 µM (inactive) |  | 19.5 µM (inactive) |  | 30.3 µM (inactive) | 45.2 µM (inactive) | 40 µM (inactive) | 18.5 µM (inactive) | 25.4 µM (inactive) | 18.8 µM (inactive) | 33.3 µM (inactive) | 

— ChEMBL document CHEMBL1201862, “PubChem BioAssay data set” (2004)
